Measurements reported in patent publication US12564597B2 (priority 2020, dated 2026).

Experiments:
[1] = Metabolic stability and noribogaine formation in rat liver microsomes (RLM); conditions: for Percentage turnover of test compounds (percent remaining): 10 μM, +NADPH
Description: (§1) Metabolism Studies. Metabolic stability of test compounds was evaluated in liver microsomes from rat (RLM) and human (HLM). This was accomplished by incubating test compounds with microsomes and monitoring disappearance of parent compound as well as metabolite formation over time using LC-MS/MS in Multiple Reaction Monitoring mode (MRM).
(§2) Stock solutions of test compounds were prepared in DMSO at a concentration of 10 mM.
(§3) Total Incubation volume: 100 μL
(§4) Compound concentration: 10 μM
(§5) Protein Concentration: 0.5 mg/mL (0.25 mg/mL for positive controls)
(§6) From the above mix, 70 PL was added to individual wells of 96 well reaction plates and pre-incubated at 37° C. for 5 min. […] Reactions without NADPH and buffer controls (minus NADPH) at 0 min and 60 min were also incubated to rule out non-NADPH metabolism or chemical instability in the incubation buffer. All reactions were terminated using 100 μL of ice-cold acetonitrile containing internal standard (glipizide) at 0, 5, 15, 30 and 60 min.
(§7) Stock solution of noribogaine was prepared in DMSO at a concentration of 20 mM and serially diluted in DMSO to prepare 10, 3, 1, 0.3, 0.1 and 0.03 mM solutions respectively.
(§8) Samples were monitored for parent compounds disappearance and formation of metabolite in MRM mode using LC-MS/MS instrument (API-4000 with Waters UPLC).
(§9) The percent remaining of test compounds and positive control in each sample was determined by considering peak area ratio in the 0 minute sample as 100%.
(§10) In vitro intrinsic clearance (CL′int) (units in mL/min/kg) was calculated using the formula: […]
(§11) For human, monkey, dog, rat and mouse the liver weight are 20 gm, 32 gm, 32 gm, 40 gm and 90 gm respectively.

in vitro = conditions: for Percentage turnover of test compounds (percent remaining): 10 μM, +NADPH
Description: as §1, §2, §3, §4, §5, §6, §7, §8, §9, §10, §11

[2] = Buffer control for chemical instability in the incubation buffer; assay type: physicochemical; conditions: Kphos buffer pH 7.4, 37° C., no microsomes, minus NADPH
[3] = Plasma pharmacokinetics and brain distribution in male Wistar rats after a single intraperitoneal dose
Description: Formulation strengths for intraperitoneal administration was 4 mg/mL. A weighed quantity of compound was combined with an appropriate volume of vehicle (10% ethanol and 90% normal saline), the mixture was warmed to 55° C. and vortexed until a clear yellowish solution was obtained. The dosing volume administered was 10 mL/kg for intraperitoneal route.
Healthy male Wistar rats (8-12 weeks old) weighing between 280 to 300 g were procured from Global, India. Three rats were housed in each cage. […] Temperature and humidity were recorded by auto-controlled data logger system. All the animals were provided laboratory rodent diet (Envigo Research private Ltd, Hyderabad). Reverse osmosis water treated with ultraviolet light was provided ad libitum.
Blood samples (approximately 120 μL) were collected under light isoflurane anesthesia from retro orbital plexus from a set of three rats at specified time intervals. Samples were collected into labeled micro-tubes, containing K2EDTA solution (10 μL of 20% K2EDTA of solution per mL of blood) as an anticoagulant. Plasma was immediately harvested from the blood by centrifugation at 4000 rpm for 10 min at 4±2° C. and stored below −70±10° C. until bioanalysis.
Immediately, after blood collection animals were euthanized with excess CO2 and brain was isolated at each time point. Brain was rinsed three times in ice cold PBS (for 5-10 seconds/rinse using ˜5-10 mL fresh PBS in disposable petri dish for each rinse) and dried on blotting paper. Brain samples were homogenized using ice-cold phosphate buffer saline (pH 7.4) and homogenates were stored below −70±10° C. until analysis. Total homogenate volume was three times the tissue weight.
The extraction procedure for plasma and brain samples and the spiked plasma and brain calibration standards were identical: A 25 PL of study sample or spiked plasma and brain calibration standard was added to individual pre-labeled micro-centrifuge tubes followed by 100 PL of internal standard prepared in Acetonitrile (Glipizide, 500 ng/mL) was added except for blank, where 100 μL of Acetonitrile was added. Samples were vortexed for 5 minutes and then centrifuged for 10 minutes at a speed of 4000 rpm at 4° C. Following centrifugation, 100 μL of clear supernatant was transferred to a 96 well plate and analyzed using LC-MS/MS.
Non-compartmental analysis tool of Phoenix WinNonlin® (Version 7.0) was used to assess the pharmacokinetic parameters. Peak plasma concentrations (Cmax) and time for the peak plasma concentrations (Tmax) were the observed values. The areas under the concentration time curve (AUClast and AUCinf) were calculated by linear trapezoidal rule. The terminal elimination rate constant, ke was determined by regression analysis of the linear terminal portion of the log plasma concentration-time curve.

[4] = 0.08 h after CD3O-ibogamine 40 mg/kg i.p.
[5] = 0.5 h after CD3O-ibogamine 40 mg/kg i.p.
[6] = 1 h after CD3O-ibogamine 40 mg/kg i.p.
[7] = 2 h after CD3O-ibogamine 40 mg/kg i.p.
[8] = 3 h after CD3O-ibogamine 40 mg/kg i.p.
[9] = male, Wistar, rat, in vivo, ip, 40 mg/kg, brain, analyte after CD3O-ibogamine 40 mg/kg i.p.
[10] = male, Wistar, rat, in vivo, ip, 40 mg/kg, plasma, analyte after CD3O-ibogamine 40 mg/kg i.p.

## [2H]C([2H])([2H])Oc1ccc2[nH]c3c(c2c1)CCN1C[C@H]2C[C@H](CC)C1[C@H]3C2 [CD3O-ibogamine]
[1]; RLM
  CLh, int: 742 mL/min/kg
  t1/2: <5 min
[1]; RLM, 0 min
  Percentage turnover of test compounds (percent remaining): 100%
[1]; RLM, 5 min
  Percentage turnover of test compounds (percent remaining): 36%
[1]; RLM, 15 min
  Percentage turnover of test compounds (percent remaining): 0%
[1]; RLM, 30 min
  Percentage turnover of test compounds (percent remaining): 1%
[1]; RLM, 60 min
  Percentage turnover of test compounds (percent remaining): 0%
[1]; RLM, summary
  % Remaining at 60 min (+NADPH): 0%
[1]; RLM, without NADPH
  % Remaining at 60 min (−NADPH): 105%
[1]; in vitro microsome study
  metabolism compared to ibogaine in the in vitro study: metabolized faster than ibogaine
[1]; male, rat, microsomes, pH 7.4
  half-life at 10 μM: < 5 min
[1]; short incubation period (~5 min)
  total amount of noribogaine produced compared to ibogaine: comparable
In vitro; HLM
  CLh, int: 42 mL/min/kg
  metabolic degradation, times faster compared to that of ibogaine: more than 2 ×
In vitro; HLM, 0 min
  Percentage turnover of test compounds (percent remaining): 100%
In vitro; HLM, 5 min
  Percentage turnover of test compounds (percent remaining): 98%
In vitro; HLM, 15 min
  Percentage turnover of test compounds (percent remaining): 83%
In vitro; HLM, 30 min
  Percentage turnover of test compounds (percent remaining): 67%
In vitro; HLM, 60 min
  Percentage turnover of test compounds (percent remaining): 25%
In vitro; HLM, summary
  % Remaining at 60 min (+NADPH): 25%
In vitro; HLM, without NADPH
  % Remaining at 60 min (−NADPH): 105%
In vitro; human, microsomes, pH 7.4
  half-life: 30 min
[2]
  % Remaining at 60 min (Buffer): 90%
[3]; [4]
  Mean brain concentration: 11340 ng/g
  Mean plasma concentration: 1229 ng/mL
[3]; [5]
  Mean brain concentration: 6647 ng/g
  Mean plasma concentration: 698 ng/mL
[3]; [6]
  Mean brain concentration: 5363 ng/g
  Mean plasma concentration: 620 ng/mL
[3]; [7]
  Mean brain concentration: 3941 ng/g
  Mean plasma concentration: 343 ng/mL
[3]; [8]
  Mean brain concentration: 4684 ng/g
  Mean plasma concentration: 473 ng/mL
[3]; brain, analyte after CD3O-ibogamine 40 mg/kg i.p.
  AUClast: 16357.31 ng·h/g
[3]; male, Wistar, rat, in vivo, ip, 40 mg/kg, AUClast, plasma, analyte after CD3O-ibogamine 40 mg/kg i.p.
  AUC(0-t): 1700 ng·h/mL
[3]; [9]
  Cmax: 11300 ng/g
  Tmax: 4.8 min
[3]; [10]
  Cmax: 1230 ng/mL
  Tmax: 4.8 min
[3]; single i.p. dose 40 mg/kg
  difference of plasma concentration versus ibogaine (lower for CD3O-ibogamine): approximately 25%
  maximum brain concentration as percent of the ibogaine concentration detected after its administration: ~43%
